Test results as given in ChEMBL document CHEMBL4049391, “Vicinal diaryl azole-based urea derivatives as potential cholesterol lowering agents acting through inhibition of SOAT enzymes” (Eur J Med Chem, 2017).
Active and inactive are the calls of the source. No cut-off for these calls is given here.

Assays:
Rattus norvegicus [1] = test: Acute toxicity in Wistar rat assessed as effect on water intake at 2000 mg/kg, po administered as single dose measured at 6 hrs post dose; type: organism-based; settings: in vivo
Rattus norvegicus [2] = test: Acute toxicity in Wistar rat assessed as macroscopic lesions in spleen at 2000 mg/kg, po administered as single dose measured up to 14 days; type: organism-based; settings: in vivo, 336 h
Rattus norvegicus [3] = test: Anti-atherosclerosis activity in high cholesterol diet-induced Wistar rat atherogenesis model assessed as reduction in triglyceride level at 10 to 30 mg/kg, po administered once daily measured after 4 weeks; type: functional, organism-based
Rattus norvegicus [4] = test: Acute toxicity in Wistar rat assessed as effect on breathing at 2000 mg/kg, po administered as single dose measured up to 14 days; type: organism-based; settings: in vivo, 336 h
[5] = Inhibition of rat microsomal SOAT assessed as reduction in cholesteryl oleate formation from oleoyl co-enzyme A pretreated for 15 mins followed by oleoyl co-enzyme A addition after 10 mins by HPTLC method
Rattus norvegicus [6] = test: Anti-atherosclerosis activity in high cholesterol diet-induced Wistar rat atherogenesis model assessed as lipid accumulation lesion area in thoracic aorta at 10 mg/kg, po administered once daily measured after 4 weeks by Sudan red 4 staining based photographic method (reference value: 22.35 +/- 7.9%); type: functional
Rattus norvegicus [7] = test: Toxicity in Wistar rat assessed as adrenal toxicity at 10 to 30 mg/kg, po administered once daily measured after 4 weeks; type: organism-based; settings: in vivo, 672 h
Rattus norvegicus [8] = test: Anti-atherosclerosis activity in high cholesterol diet-induced Wistar rat atherogenesis model assessed as effect on serum total cholesterol level at 30 mg/kg, po administered once daily measured after 4 weeks; type: functional
Rattus norvegicus [9] = test: Acute toxicity in Wistar rat assessed as cutaneous xanthomatosis at 60 mg/kg, po administered as repeated dosing for 42 days; type: organism-based; settings: in vivo, 1008 h
[10] = Acute toxicity in Wistar rat assessed as mortality administered orally as single dose measured up to 14 days; settings: in vivo, po, read-out: CD50
Rattus norvegicus [11] = test: Acute toxicity in Wistar rat assessed as macroscopic lesions in lung at 2000 mg/kg, po administered as single dose measured up to 14 days; type: organism-based; settings: in vivo, 336 h
Rattus norvegicus [12] = test: Acute toxicity in Wistar rat assessed as effect on locomotion at 2000 mg/kg, po administered as single dose measured up to 14 days; type: organism-based; settings: in vivo, 336 h
Rattus norvegicus [13] = test: Anti-atherosclerosis activity in high cholesterol diet-induced Wistar rat atherogenesis model assessed as atherogenic index at 30 mg/kg, po administered once daily measured after 4 weeks (reference value: 19.59 +/- 5.8); type: functional
Rattus norvegicus [14] = test: Toxicity in Wistar rat assessed as effect on body weight at 10 mg/kg, po administered once daily measured after 4 weeks (reference value: 290.3 +/- 8.1 g); type: organism-based; settings: in vivo, 672 h
Rattus norvegicus [15] = test: Anti-atherosclerosis activity in high cholesterol diet-induced Wistar rat atherogenesis model assessed as lipid accumulation lesion area in thoracic aorta at 30 mg/kg, po administered once daily measured after 4 weeks by Sudan red 4 staining based photographic method relative to control; type: functional
Rattus norvegicus [16] = test: Anti-atherosclerosis activity in high cholesterol diet-induced Wistar rat atherogenesis model assessed as atherogenic index at 10 mg/kg, po administered once daily measured after 4 weeks (reference value: 19.59 +/- 5.8); type: functional
Rattus norvegicus [17] = test: Anti-atherosclerosis activity in high cholesterol diet-induced Wistar rat atherogenesis model assessed as reduction in LDL-cholesterol level at 10 mg/kg, po administered once daily measured after 4 weeks; type: functional, organism-based
Rattus norvegicus [18] = test: Acute toxicity in Wistar rat assessed as shrinkage of adrenal gland at 2000 mg/kg, po administered as single dose measured up to 14 days; type: organism-based; settings: in vivo, 336 h
Rattus norvegicus [19] = test: Acute toxicity in Wistar rat assessed as macroscopic lesions in brain at 2000 mg/kg, po administered as single dose measured up to 14 days; type: organism-based; settings: in vivo, 336 h
Rattus norvegicus [20] = test: Acute toxicity in Wistar rat assessed as effect on fur color at 2000 mg/kg, po administered as single dose measured up to 14 days; type: organism-based; settings: in vivo, 336 h
Rattus norvegicus [21] = test: Anti-atherosclerosis activity in high cholesterol diet-induced Wistar rat atherogenesis model assessed as reduction in lumenal lipid plaque formation in aortic roots at 10 to 30 mg/kg, po administered once daily measured after 4 weeks by Sudan red 4 staining based photographic method; type: functional, organism-based
Rattus norvegicus [22] = test: Acute toxicity in Wistar rat assessed as changes in adrenal gland shape at 2000 mg/kg, po administered as single dose measured up to 14 days; type: organism-based; settings: in vivo, 336 h
Rattus norvegicus [23] = test: Acute toxicity in Wistar rat assessed as effect on mucus of lungs at 2000 mg/kg, po administered as single dose measured up to 14 days; type: organism-based; settings: in vivo, 336 h
Rattus norvegicus [24] = test: Acute toxicity in Wistar rat assessed as changes in eyes at 2000 mg/kg, po administered as single dose measured up to 14 days; type: organism-based; settings: in vivo, 336 h
Rattus norvegicus [25] = test: Anti-atherosclerosis activity in high cholesterol diet-induced Wistar rat atherogenesis model assessed as reduction in LDL-cholesterol level at 30 mg/kg, po administered once daily measured after 4 weeks; type: functional, organism-based
Rattus norvegicus [26] = test: Acute toxicity in Wistar rat assessed as change in grooming behavior at 2000 mg/kg, po administered as single dose measured at 6 hrs post dose; type: organism-based; settings: in vivo
Rattus norvegicus [27] = test: Anti-atherosclerosis activity in po dosed high cholesterol diet-induced Wistar rat atherogenesis model assessed as reduction in serum total cholesterol level administered once daily measured after 4 weeks; type: functional, organism-based
Rattus norvegicus [28] = test: Acute toxicity in Wistar rat assessed as change in body weight at 2000 mg/kg, po administered as single dose measured at 6 hrs post dose; type: organism-based; settings: in vivo
Rattus norvegicus [29] = test: Acute toxicity in Wistar rat assessed as effect on normal behavior at 60 mg/kg, po administered as repeated dosing for 28 days; type: organism-based; settings: in vivo, 672 h
Rattus norvegicus [30] = test: Acute toxicity in Wistar rat assessed as effect on food intake at 60 mg/kg, po administered as repeated dosing for 28 days; type: organism-based; settings: in vivo, 672 h
Rattus norvegicus [31] = test: Toxicity in Wistar rat assessed as effect on body weight at 30 mg/kg, po administered once daily measured after 4 weeks (reference value: 290.3 +/- 8.1 g); type: organism-based; settings: in vivo, 672 h
Rattus norvegicus [32] = species on record: Rattus norvegicus; test: Inhibition of rat microsomal SOAT assessed as reduction in cholesteryl oleate formation from oleoyl co-enzyme A at 10 uM pretreated for 15 mins followed by oleoyl co-enzyme A addition measured after 10 mins by HPTLC method relative to control
Rattus norvegicus [33] = test: Acute toxicity in Wistar rat assessed as macroscopic lesions in liver at 2000 mg/kg, po administered as single dose measured up to 14 days; type: organism-based; settings: in vivo, 336 h
Rattus norvegicus [34] = test: Acute toxicity in Wistar rat assessed as changes in adrenal gland size at 2000 mg/kg, po administered as single dose measured up to 14 days; type: organism-based; settings: in vivo, 336 h
Rattus norvegicus [35] = test: Acute toxicity in Wistar rat assessed as effect on skin color at 2000 mg/kg, po administered as single dose measured up to 14 days; type: organism-based; settings: in vivo, 336 h
Rattus norvegicus [36] = test: Anti-hypercholesterolemic activity in poloxamer-407-induced Wistar rat lipoprotein lipase inhibition model assessed as fold change in triglyceride level at 20 mg/kg administered as single dose via oral gavage pretreated for 4 hrs followed by poloxamer-407 induction measured over 24 hrs (reference value: 80); type: functional
Rattus norvegicus [37] = test: Anti-atherosclerosis activity in high cholesterol diet-induced Wistar rat atherogenesis model assessed as reduction in fatty streak formation in thoracic aorta at 10 mg/kg, po administered once daily measured after 4 weeks by Sudan red 4 staining based photographic method; type: functional, organism-based

SMILES: CCCCNC(=O)Nc1ccc(-c2sc(C)nc2-c2ccc(C)cc2)cc1
- Activity (Rattus norvegicus [1]): Non-Toxic
- Activity (Rattus norvegicus [2]): Non-Toxic
- Activity (Rattus norvegicus [3]): inactive
- Activity (Rattus norvegicus [4]): Non-Toxic
- IC50 [5]: 2430 nM
- pIC50 [5]: 5.614
- Activity (Rattus norvegicus [6]): 16.21%
- Activity (Rattus norvegicus [7]): Non-Toxic
- Activity (Rattus norvegicus [8]): 138 mg/dL
- Activity (Rattus norvegicus [9]): Non-Toxic
- LD50 at 336 h [10]: > 2000 mg/kg
- Activity (Rattus norvegicus [11]): Non-Toxic
- Activity (Rattus norvegicus [12]): Non-Toxic
- Activity_index (Rattus norvegicus [13]): 1.82
- Activity (Rattus norvegicus [14]): 294 g
- fold change (FC) (Rattus norvegicus [15]): 3
- Activity_index (Rattus norvegicus [16]): 7.55
- Activity (Rattus norvegicus [17]): inactive
- Activity (Rattus norvegicus [18]): Non-Toxic
- Activity (Rattus norvegicus [19]): Non-Toxic
- Activity (Rattus norvegicus [20]): Non-Toxic
- Activity (Rattus norvegicus [21]): Active
- Activity (Rattus norvegicus [22]): Non-Toxic
- Activity (Rattus norvegicus [23]): Non-Toxic
- Activity (Rattus norvegicus [24]): Non-Toxic
- Activity (Rattus norvegicus [25]): Active
- Activity (Rattus norvegicus [26]): Non-Toxic
- Activity (Rattus norvegicus [27]): Dose-dependent effect
- Activity (Rattus norvegicus [28]): Non-Toxic
- Activity (Rattus norvegicus [29]): Non-Toxic
- Activity (Rattus norvegicus [30]): Non-Toxic
- Activity (Rattus norvegicus [31]): 299 g
- inhibition (Rattus norvegicus [32]): 64.9%
- Activity (Rattus norvegicus [33]): Non-Toxic
- Activity (Rattus norvegicus [34]): Non-Toxic
- Activity (Rattus norvegicus [35]): Non-Toxic
- fold change (FC) (Rattus norvegicus [36]): 20
- Activity (Rattus norvegicus [37]): inactive
